Results from ChEMBL document CHEMBL4706477, “Synthesis and Biological Evaluation of Calothrixins B and their Deoxygenated Analogues” (J Med Chem, 2018).
Activity calls are given as the source filed them. No cut-off for these calls is given here.

Experiments:
[1] = target: T1, DNA topoisomerase 2-alpha (Homo sapiens, UniProt P11388); assay: Inhibition of recombinant human topoisomerase 2 assessed as decrease in relaxation of supercoiled pBlue-Script KS(+) plasmid DNA at 40 uM incubated for 30 mins by ethidium bromide staining based gel electrophoresis method relative to control
T1 sequence (P11388 whole entry): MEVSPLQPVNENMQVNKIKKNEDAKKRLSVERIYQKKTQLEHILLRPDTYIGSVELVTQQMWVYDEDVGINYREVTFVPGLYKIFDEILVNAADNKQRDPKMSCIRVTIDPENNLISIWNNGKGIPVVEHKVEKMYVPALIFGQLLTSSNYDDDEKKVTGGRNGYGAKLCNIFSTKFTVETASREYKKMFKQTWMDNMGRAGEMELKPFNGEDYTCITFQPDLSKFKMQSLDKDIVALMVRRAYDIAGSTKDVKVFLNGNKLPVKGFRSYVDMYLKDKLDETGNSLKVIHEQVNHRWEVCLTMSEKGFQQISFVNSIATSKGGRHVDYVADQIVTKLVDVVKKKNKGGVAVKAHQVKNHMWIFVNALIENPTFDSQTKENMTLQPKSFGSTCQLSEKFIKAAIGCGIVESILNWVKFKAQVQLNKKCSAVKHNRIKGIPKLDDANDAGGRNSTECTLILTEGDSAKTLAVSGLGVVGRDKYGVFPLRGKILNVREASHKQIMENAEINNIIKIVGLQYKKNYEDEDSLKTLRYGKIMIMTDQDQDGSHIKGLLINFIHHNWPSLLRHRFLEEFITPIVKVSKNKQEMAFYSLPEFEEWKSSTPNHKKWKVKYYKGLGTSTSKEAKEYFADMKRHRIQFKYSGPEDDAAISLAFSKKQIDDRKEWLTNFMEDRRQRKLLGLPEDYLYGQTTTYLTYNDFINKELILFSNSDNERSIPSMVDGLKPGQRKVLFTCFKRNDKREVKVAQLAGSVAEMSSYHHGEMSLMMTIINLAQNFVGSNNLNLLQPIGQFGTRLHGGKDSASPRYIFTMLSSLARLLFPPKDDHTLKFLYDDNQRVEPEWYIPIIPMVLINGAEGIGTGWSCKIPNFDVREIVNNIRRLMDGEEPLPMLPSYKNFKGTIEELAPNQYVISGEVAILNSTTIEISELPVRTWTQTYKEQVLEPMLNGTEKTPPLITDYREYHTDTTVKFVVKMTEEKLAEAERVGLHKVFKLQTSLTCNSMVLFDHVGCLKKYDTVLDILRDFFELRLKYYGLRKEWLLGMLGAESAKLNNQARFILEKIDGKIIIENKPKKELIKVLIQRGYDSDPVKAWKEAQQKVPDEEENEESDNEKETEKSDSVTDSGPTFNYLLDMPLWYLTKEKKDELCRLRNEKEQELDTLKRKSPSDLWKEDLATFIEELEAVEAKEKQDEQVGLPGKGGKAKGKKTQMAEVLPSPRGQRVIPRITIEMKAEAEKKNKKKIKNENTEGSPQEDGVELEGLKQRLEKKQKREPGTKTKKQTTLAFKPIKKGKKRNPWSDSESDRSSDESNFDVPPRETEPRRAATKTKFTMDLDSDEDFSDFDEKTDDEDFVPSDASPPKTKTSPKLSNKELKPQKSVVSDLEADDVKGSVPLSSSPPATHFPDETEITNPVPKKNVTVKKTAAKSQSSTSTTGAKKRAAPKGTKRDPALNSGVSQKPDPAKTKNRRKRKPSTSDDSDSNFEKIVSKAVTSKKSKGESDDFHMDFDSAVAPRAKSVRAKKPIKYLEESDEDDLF

HEK293 = assay: Antiproliferative activity against human HEK293 cells assessed as reduction in cell viability incubated for 48 hrs by sulphorhodamine B assay; type: functional
A549 = assay: Antiproliferative activity against human A549 cells assessed as reduction in cell viability incubated for 48 hrs by sulphorhodamine B assay; type: functional
HCT-116 [2] = assay: Anticlonogenic activity against human HCT-116 cells assessed as inhibition of colony formation at 5 uM incubated for 48 hrs followed by compound washout with PBS and measured after 14 days by crystal violet staining based analysis; type: functional, cell-based
NCI-H460 [3] = assay: Anticlonogenic activity against human NCI-H460 cells assessed as inhibition of colony formation at 5 uM incubated for 48 hrs followed by compound washout with PBS and measured after 14 days by crystal violet staining based analysis; type: functional, cell-based
HCT-116 [4] = assay: Induction of cell cycle arrest in human HCT-116 cells at 5 uM incubated for 20 hrs by propidium iodide staining based flow cytometry analysis; type: functional
HCT-116 [5] = assay: Induction of cell cycle arrest in human HCT-116 cells assessed as accumulation of cells at G2/M phase at 5 uM incubated for 48 hrs by propidium iodide staining based flow cytometry analysis; type: functional
[6] = target: T1, DNA topoisomerase 2-alpha; assay: Inhibition of recombinant human topoisomerase 2 assessed as decrease in relaxation of supercoiled pBlue-Script KS(+) plasmid DNA at 200 uM incubated for 30 mins by ethidium bromide staining based gel electrophoresis method
[7] = target: T1, DNA topoisomerase 2-alpha; assay: Inhibition of recombinant human topoisomerase 2 assessed as decrease in relaxation of supercoiled pBlue-Script KS(+) plasmid DNA incubated for 30 mins by ethidium bromide staining based gel electrophoresis method
[8] = target: T1, DNA topoisomerase 2-alpha; assay: Inhibition of human topoisomerase 2 assessed as inhibition of etoposide-induced DNA cleavage complex formation by measuring linear DNA formation at 30 to 50 uM incubated for 30 mins using pRYG DNA as substrate by agarose gel electrophoresis analysis; details: dose 30-50 µM
HCT-116 [9] = assay: Induction of DNA damage in human HCT-116 cells assessed as tail length at 5 uM incubated for 48 hrs by alkaline Comet assay relative to control; type: functional, cell-based
NCI-H460 [10] = assay: Induction of DNA damage in human NCI-H460 cells at 5 uM incubated for 48 hrs by alkaline Comet assay relative to control; type: functional, cell-based
Calf thymus DNA [11] = assay: Binding affinity to calf thymus DNA assessed as hyperchromic effect measured at 299 nm at 3*10^-5 mol/L by double beam UV-Vis spectroscopic analysis; type: nucleic-acid assay; details: Bos taurus
Calf thymus DNA [12] = assay: Binding affinity to calf thymus DNA assessed as DNA intercalation by measuring positive CD band at 20*10^-6 mol/L by CD spectroscopy; type: nucleic-acid assay; details: Bos taurus
Calf thymus DNA [13] = assay: Binding affinity to calf thymus DNA assessed as DNA intercalation by measuring positive CD band at 26.6*10^-6 mol/L by CD spectroscopy; type: nucleic-acid assay; details: Bos taurus
[14] = target: T2, DNA topoisomerase 1 (Homo sapiens) (UniProt P11387); assay: Inhibition of human topoisomerase 1 assessed as induction of negative supercoiled DNA using relaxed pBlue-Script KS(+) plasmid DNA as substrate measured after 15 mins by agarose gel electrophoresis analysis; details: dose 60-100 µM
T2 sequence (whole entry): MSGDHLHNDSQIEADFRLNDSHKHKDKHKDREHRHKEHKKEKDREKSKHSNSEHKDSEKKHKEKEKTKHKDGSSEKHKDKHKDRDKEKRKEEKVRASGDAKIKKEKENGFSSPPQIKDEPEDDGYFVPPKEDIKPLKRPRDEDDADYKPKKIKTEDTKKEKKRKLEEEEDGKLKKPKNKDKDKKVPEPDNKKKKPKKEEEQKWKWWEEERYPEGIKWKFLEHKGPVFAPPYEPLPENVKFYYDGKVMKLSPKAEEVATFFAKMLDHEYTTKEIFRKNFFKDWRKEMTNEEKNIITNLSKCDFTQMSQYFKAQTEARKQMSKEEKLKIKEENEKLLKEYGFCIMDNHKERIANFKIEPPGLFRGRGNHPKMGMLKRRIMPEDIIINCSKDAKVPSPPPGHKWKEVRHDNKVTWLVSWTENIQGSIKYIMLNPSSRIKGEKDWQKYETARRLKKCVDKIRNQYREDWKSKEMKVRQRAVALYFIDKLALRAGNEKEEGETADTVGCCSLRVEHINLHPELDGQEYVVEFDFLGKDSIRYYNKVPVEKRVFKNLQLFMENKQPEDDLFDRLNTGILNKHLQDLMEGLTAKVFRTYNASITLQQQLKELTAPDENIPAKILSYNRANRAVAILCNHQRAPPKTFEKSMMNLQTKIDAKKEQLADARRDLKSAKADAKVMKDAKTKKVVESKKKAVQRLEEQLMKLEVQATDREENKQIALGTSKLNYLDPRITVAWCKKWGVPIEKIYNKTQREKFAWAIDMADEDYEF

Jurkat = assay: cells; details: Homo sapiens, 48 h
Description: Antiproliferative activity against human Jurkat cells assessed as reduction in cell viability incubated for 48 hrs by sulphorhodamine B assay

HeLa [15] = assay: cells; details: Homo sapiens, 48 h
Description: Antiproliferative activity against human HeLa cells assessed as reduction in cell viability incubated for 48 hrs by sulphorhodamine B assay

SiHa = assay: cells; details: Homo sapiens, 48 h
Description: Antiproliferative activity against human SiHa cells assessed as reduction in cell viability incubated for 48 hrs by sulphorhodamine B assay

MCF7 = assay: cells; details: Homo sapiens, MCF7, 48 h
Description: Antiproliferative activity against human MCF7 cells assessed as reduction in cell viability incubated for 48 hrs by sulphorhodamine B assay

HCT-116 [16] = assay: cells; details: Homo sapiens, HCT-116, 48 h
Description: Antiproliferative activity against human HCT-116 cells assessed as reduction in cell viability incubated for 48 hrs by sulphorhodamine B assay

U-251 = assay: cells; details: Homo sapiens, U-251, 48 h
Description: Antiproliferative activity against human U-251 cells assessed as reduction in cell viability incubated for 48 hrs by sulphorhodamine B assay

NCI-H460 [17] = assay: cells; details: Homo sapiens, NCI-H460, 48 h
Description: Antiproliferative activity against human NCI-H460 cells assessed as reduction in cell viability incubated for 48 hrs by sulphorhodamine B assay

MDA-MB-231 = assay: cells; details: Homo sapiens, MDA-MB-231, 48 h
Description: Antiproliferative activity against human MDA-MB-231 cells assessed as reduction in cell viability incubated for 48 hrs by sulphorhodamine B assay

physchem [18] = details: octanol/water
Description: Octanol/water partition coefficient, log P of the compound

physchem [19] = details: octanol/buffer, pH 7.4
Description: Octanol/buffer distribution coefficient, log D of the compound at pH 7.4

HCT-116 [20] = assay: Induction of cell cycle arrest in human HCT-116 cells assessed as accumulation of cells at G1/S phase at 2 uM incubated for 48 hrs by propidium iodide staining based flow cytometry analysis; type: functional
HCT-116 [21] = assay: Induction of cell cycle arrest in human HCT-116 cells assessed as accumulation of cells at sub-G1 phase at 2 uM incubated for 48 hrs by propidium iodide staining based flow cytometry analysis; type: functional
[22] = target: T1, DNA topoisomerase 2-alpha; assay: Inhibition of recombinant human topoisomerase 2 assessed as decrease in relaxation of supercoiled pBlue-Script KS(+) plasmid DNA at < 100 uM incubated for 30 mins by ethidium bromide staining based gel electrophoresis method; details: dose microM <100, time 30.0 min
HCT-116 [23] = assay: Induction of DNA damage in human HCT-116 cells assessed as tail length at 0.5 uM incubated for 48 hrs by alkaline Comet assay relative to control; type: functional, cell-based
HCT-116 [24] = assay: Induction of apoptosis in human HCT-116 cells assessed as chromatin condensation at 2 uM incubated for 48 hrs by acridine orange/propidium iodide double staining based fluorescence microscopy analysis; type: functional, cell-based
HCT-116 [25] = assay: Induction of apoptosis in human HCT-116 cells assessed as nuclear fragmentation at 2 uM incubated for 48 hrs by acridine orange/propidium iodide double staining based fluorescence microscopy analysis; type: functional, cell-based
NCI-H460 [26] = assay: Induction of apoptosis in human NCI-H460 cells assessed as chromatin condensation at 2 uM incubated for 48 hrs by acridine orange/propidium iodide double staining based fluorescence microscopy analysis; type: functional, cell-based
NCI-H460 [27] = assay: Induction of apoptosis in human NCI-H460 cells assessed as nuclear fragmentation at 2 uM incubated for 48 hrs by acridine orange/propidium iodide double staining based fluorescence microscopy analysis; type: functional, cell-based
HeLa [28] = assay: Induction of apoptosis in human HeLa cells assessed as increase in cleaved PARP levels at 1 uM by Western blot analysis; type: functional, cell-based; details: time 6-24 hrs, TDE = time-dependent effect
NCI-H460 [29] = assay: Induction of apoptosis in human NCI-H460 cells assessed as increase in cleaved PARP protein levels at 3 uM incubated for 48 hrs by Western blot analysis; type: functional, cell-based
HCT-116 [30] = assay: Induction of apoptosis in human HCT-116 cells assessed as reduction in PARP protein levels at 3 uM incubated for 48 hrs by Western blot analysis; type: functional, cell-based
Calf thymus DNA [31] = assay: Binding affinity to calf thymus DNA assessed as hypochromic effect at 3*10^-5 mol/L by double beam UV-Vis spectroscopic analysis; type: nucleic-acid assay; details: Bos taurus
Calf thymus DNA [32] = assay: Binding affinity to calf thymus DNA assessed as hypsochromic shift absorbance measured at 284 nm at 3*10^-5 mol/L by double beam UV-Vis spectroscopic analysis; type: nucleic-acid assay; details: Bos taurus
Calf thymus DNA [33] = assay: Binding affinity to calf thymus DNA assessed as hyperchromic shift measured at 362 nm at 3*10^-5 mol/L by double beam UV-Vis spectroscopic analysis; type: nucleic-acid assay; details: Bos taurus
Calf thymus DNA [34] = assay: Binding affinity to calf thymus DNA assessed as hyperchromic shift measured at 432 nm at 3*10^-5 mol/L by double beam UV-Vis spectroscopic analysis; type: nucleic-acid assay; details: Bos taurus
HCT-116 [35] = assay: cells; details: Homo sapiens, HCT-116, 48 h; remark: listed apart in the source
Description: Antiproliferative activity against human HCT-116 p53-/- cells assessed as reduction in cell viability incubated for 48 hrs by sulphorhodamine B assay

## c1ccc2c(c1)ncc1cc3c(cc12)[nH]c1ccccc13
[1]
  inhibition: 97%
HEK293
  GI50: > 4000 nM
A549
  GI50: > 4000 nM
HCT-116 [2]
  inhibition: inactive
NCI-H460 [3]
  inhibition: inactive
HCT-116 [4]
  Activity: inactive
HCT-116 [5]
  Activity: inactive
[6]
  inhibition: 100%
[7]
  IC50: 23400 nM
  IC90: 41500 nM
  inhibition: Dose-dependent effect
[8]
  inhibition: Active
HCT-116 [9]
  Activity: inactive
NCI-H460 [10]
  Activity: inactive
Calf thymus DNA [11]
  Activity: 30%
Calf thymus DNA [12]
  Activity: Active
Calf thymus DNA [13]
  Activity: Active
[14]
  Activity: Dose-dependent effect
Jurkat
  GI50: 4000 nM
HeLa [15]
  GI50: 410 nM
SiHa
  GI50: > 4000 nM
MCF7
  GI50: > 4000 nM
HCT-116 [16]
  GI50: 11500 nM
U-251
  GI50: > 4000 nM
NCI-H460 [17]
  GI50: 5500 nM
MDA-MB-231
  GI50: > 4000 nM
Physchem [18]
  logP: -1.25
Physchem [19]
  logD: -1.55

## O=C1c2c[n+]([O-])c3ccccc3c2C(=O)c2[nH]c3ccccc3c21 [CALOTHRIXIN A]
HCT-116 [20]
  Activity: Active
HCT-116 [21]
  Activity: Active
[6]
  inhibition: Active
[22]
  inhibition: inactive
HCT-116 [23]
  Activity: Active
HCT-116 [24]
  Activity: Active
HCT-116 [25]
  Activity: Active
NCI-H460 [26]
  Activity: Active
NCI-H460 [27]
  Activity: Active
HeLa [28]
  Activity: Tde
NCI-H460 [29]
  Activity: Active
HCT-116 [30]
  Activity: Active
Calf thymus DNA [31]
  Activity: 13%
Calf thymus DNA [32]
  Activity: 10 nm
Calf thymus DNA [33]
  Activity: 12%
Calf thymus DNA [34]
  Activity: 13%
Jurkat
  GI50: 70 nM
HeLa [15]
  GI50: 80 nM
SiHa
  GI50: 50 nM
MCF7
  GI50: 30 nM
HCT-116 [16]
  GI50: 110 nM
HCT-116 [35]
  GI50: 80 nM
U-251
  GI50: 80 nM
NCI-H460 [17]
  GI50: 220 nM
MDA-MB-231
  GI50: 40 nM
Physchem [18]
  logP: 1.32
Physchem [19]
  logD: 1.02
